Laboratory results: patent US11091450B2, “Crystal of a caspase inhibitor” (Chia Tai Tianqing Pharmaceutical Group Co., Ltd., priority 2018, dated 2021)
Converted amounts (≈) assume the structure as drawn. Each block holds one molecule with its values, some of them ahead of it.

Experiments:
[1] = target: T1, Caspase-8 (Homo sapiens, UniProt Q14790); assay: Caspase-8 Inhibitor Screening Kit (BioVision), fluorogenic substrate; type: biochemical; details: 30 min preincubation at 37° C., substrate 50 μM; read-out: Caspase-8 enzymatic activity (IC50)
T1 construct: purchased BioVision K158-100
T1 sequence (Q14790 217-374 limits assumed): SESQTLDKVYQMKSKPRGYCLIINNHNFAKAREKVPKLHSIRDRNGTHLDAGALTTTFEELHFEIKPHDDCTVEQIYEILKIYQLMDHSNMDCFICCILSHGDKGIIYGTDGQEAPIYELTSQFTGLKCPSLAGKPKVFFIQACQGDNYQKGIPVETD
T1 sequence (Q14790 385-479 limits assumed): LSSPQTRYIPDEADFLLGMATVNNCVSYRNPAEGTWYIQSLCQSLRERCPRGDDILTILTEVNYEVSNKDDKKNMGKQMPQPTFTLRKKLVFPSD
Protocol: (§1) Caspase Inhibitor Screening Kit for BioVision was used in this experiment to test the inhibitory activity of the test compound on Caspase.
(§2) • 1) Kit: • Caspase-1 Inhibitor Screening Kit (BioVision #K151-100) • Caspase-3 Inhibitor Screening Kit (BioVision #K153-100) • Caspase-8 Inhibitor Screening Kit (BioVision #K158-100) • Wherein, each caspase enzymatic experiment uses the reagents in corresponding kit thereof. Each enzyme was dissolved in 550 μl of the corresponding 2× reaction buffer, sub-packed and stored at −80° C., respectively. • 2) Black 384-well plate (PerkinElmer #6007279) • 3) Instrument: Multi-function microplate reader Molecular Devices (Model: SpectraMax M2e) Experimental Method: • 1) The compound of formula I-A was diluted to a 200* test concentration with DMSO via the multiple dilution, then to a 2* test concentration with ddH2O, and added to a 384-well experimental plate at 12.5 μl per well. […] After the substrate was added, the 384-well experimental plate was incubated at 37° C. for 30 minutes. • 4) The fluorescence intensity (excitation light wavelength was 400 nm, emission light wavelength was 505 nm) was measured by using a multi-function microplate reader. Fluorescence intensity was used to calculate the inhibitory effect of the compounds on Caspase. […]

[2] = target: T2, Caspase-3 (Homo sapiens, UniProt P42574); assay: Caspase-3 Inhibitor Screening Kit (BioVision), fluorogenic substrate; type: biochemical; details: 30 min preincubation at 37° C., substrate 50 μM; read-out: Caspase-3 enzymatic activity (IC50)
T2 construct: purchased BioVision K153-100
T2 sequence (P42574 29-175 limits assumed): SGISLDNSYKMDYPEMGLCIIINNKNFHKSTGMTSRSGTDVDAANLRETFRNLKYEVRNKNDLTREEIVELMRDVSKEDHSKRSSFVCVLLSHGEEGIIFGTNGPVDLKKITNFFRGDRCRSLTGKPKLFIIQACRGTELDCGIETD
T2 sequence (P42574 176-277 limits assumed): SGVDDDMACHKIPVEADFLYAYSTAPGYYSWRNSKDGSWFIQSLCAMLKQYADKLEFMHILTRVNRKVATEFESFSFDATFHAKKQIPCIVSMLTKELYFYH
Protocol: as §1, §2

[3] = target: T3, Caspase-1 (Homo sapiens, UniProt P29466); assay: Caspase-1 Inhibitor Screening Kit (BioVision), fluorogenic substrate; type: biochemical; details: 30 min preincubation at 37° C., substrate 50 μM; read-out: Caspase-1 enzymatic activity (IC50)
T3 construct: purchased BioVision K151-100
T3 sequence (P29466 120-297 limits assumed): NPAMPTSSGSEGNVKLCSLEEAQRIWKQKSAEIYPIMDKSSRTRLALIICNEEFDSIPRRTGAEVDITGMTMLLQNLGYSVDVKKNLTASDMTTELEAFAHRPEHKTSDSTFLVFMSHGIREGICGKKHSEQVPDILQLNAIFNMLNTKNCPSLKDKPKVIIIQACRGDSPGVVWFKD
T3 sequence (P29466 317-404 limits assumed): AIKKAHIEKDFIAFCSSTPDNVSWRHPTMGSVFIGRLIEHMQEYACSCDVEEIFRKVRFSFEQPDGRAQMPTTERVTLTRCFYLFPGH
Protocol: as §1, §2

[4] = Solid stability test of crystal IV (temperature, humidity, light; HPLC impurities); type: physicochemical
Protocol: 8 mg of crystal IV of the compound of formula I-A was taken, weighed accurately, placed in the sample vial and spread into a thin layer. The samples at day 0 were sealed with the bottle cap and further sealed with the sealing film, followed by storing in the refrigerator at −20° C. The stability of the samples was tested under 60° C., 92.5% RH, 25° C./60% RH, 40° C./75% RH, 60° C./75% RH and light conditions, respectively.
Analysis method: Agilent 1260 High Performance Liquid Chromatography equipped with DAD detector or Waters 2695 High Performance Liquid Chromatography equipped with PDA detector was used; chromatographic column: Waters Xselect CSH C18 (4.6 mm×150 mm, 3.5 μm), column temperature: 40° C., flow rate: 1.0 ml/min, detection wavelength: 215 nm, injection volume: 10 μL, sample concentration: 0.5 mg/mL, diluent: methanol, and the gradient of mobile phases in Table 9 was used for analysis.

[5] = Solubility test of crystal IV in different pH medium solutions; type: physicochemical; details: thermodynamic from solid, 37° C.
Protocol: 2 ml of pH medium solutions were transferred into 4 ml glass bottle respectively, and then 8 mg of crystal IV of the compound of formula I-A was added thereto. It was stirred and heated on a magnetic stirrer, and the temperature was kept at 37° C. After 4 hours and 24 hours, 1 mL of sample was taken and centrifuged rapidly, respectively. The pH value of the supernatant was determined, and the supernatant was diluted with diluent. The concentration was determined by HPLC.

[6] = aqueous buffer, pH = 4.5 Buffer, supernatant pH 4.67
[7] = aqueous buffer, pH = 5.5 Buffer, supernatant pH 5.55
[8] = aqueous buffer, pH = 6.0 Buffer, supernatant pH 6.04

IC50 [1]: 10.3 nM
IC50 [2]: 13 nM
IC50 [3]: 4.6 nM
SMILES: C[C@H](NC(=O)c1cc(-c2ccccc2Cl)on1)C(=O)N[C@@H](CC(=O)O)C(=O)COc1c(F)c(F)cc(F)c1F [Compound of formula I-A, (S)-3-((S)-2-(5-(2-chlorophenyl)isoxazol-3-carboxamido)propionamido)-4-oxo-5-(2,3,5,6-tetrafluorophenoxy)pentanoic acid]

Appearance ([4]; 25° C./60% RH, 10 days): White solid powder
Total Impurities (%) ([4]; 25° C./60% RH, 10 days): 0.20%
Property ([4]; 25° C./92.5% Relative Humidity (Exposure)): White solid
Appearance ([4]; 40° C./75% RH, 10 days): White solid powder
Total Impurities (%) ([4]; 40° C./75% RH, 10 days): 0.19%
Property ([4]; 60° C. (Exposure)): White solid
Appearance ([4]; 60° C./75% RH, 10 days): White solid powder
Total Impurities (%) ([4]; 60° C./75% RH, 10 days): 0.48%
Property ([4]; Light): White solid
Crystal ([4]; crystal form after 25° C./60% RH, 10 days): Crystal IV
Crystal ([4]; crystal form after 25° C./92.5% Relative Humidity (Exposure)): Crystal IV
Crystal ([4]; crystal form after 40° C./75% RH, 10 days): Crystal IV
Crystal ([4]; crystal form after 60° C. (Exposure)): Crystal IV
Crystal ([4]; crystal form after 60° C./75% RH, 10 days): Crystal IV
Crystal ([4]; crystal form after Light): Crystal IV
total impurities produced ([4]; high temperature and high humidity conditions (summary of Table 10)): ≤ 0.5%
stability under high temperature and high humidity conditions ([4]; summary of Table 10): stable
hygroscopicity ([4]; summary of Table 11): low hygroscopicity
stability under high temperature and light conditions ([4]; summary of Table 11): good stability
solubility at 4 h ([5]; 0.01 N HCl buffer, simulated gastric fluid, 0.01N of HCl Buffer, supernatant pH 2.01): 5 µg/mL (≈ 8.74 µM)
solubility at 24 h ([5]; 0.01 N HCl buffer, simulated gastric fluid, 0.01N of HCl Buffer, supernatant pH 2.07): 6 µg/mL (≈ 10.5 µM)
solubility at 4 h ([5]; 0.1 N HCl buffer, simulated gastric fluid, 0.1N of HCl Buffer, supernatant pH 1.07): 5 µg/mL (≈ 8.74 µM)
solubility at 24 h ([5]; 0.1 N HCl buffer, simulated gastric fluid, 0.1N of HCl Buffer, supernatant pH 1.11): 6 µg/mL (≈ 10.5 µM)
solubility at 4 h ([5]; aqueous buffer, pH = 3.8 Buffer, supernatant pH 3.97): 7 µg/mL (≈ 12.2 µM)
solubility at 24 h ([5]; aqueous buffer, pH = 3.8 Buffer, supernatant pH 3.99): 8 µg/mL (≈ 14 µM)
solubility at 4 h [5, 6]: 16 µg/mL (≈ 28 µM)
solubility at 24 h [5, 6]: 16 µg/mL (≈ 28 µM)
solubility at 4 h [5, 7]: 268 µg/mL (≈ 469 µM)
solubility at 24 h [5, 7]: 254 µg/mL (≈ 444 µM)
solubility at 4 h [5, 8]: 372 µg/mL (≈ 651 µM)
solubility at 24 h [5, 8]: 340 µg/mL (≈ 595 µM)
solubility at 4 h ([5]; aqueous buffer, pH = 6.8 Buffer, supernatant pH 6.71): 775 µg/mL (≈ 1360 µM)
solubility at 4 h ([5]; aqueous buffer, pH = 7.4 Buffer, supernatant pH 7.28): 1700 µg/mL (≈ 2970 µM)
solubility at 24 h ([5]; aqueous buffer, pH = 7.4 Buffer, supernatant pH 7.24): 1620 µg/mL (≈ 2830 µM)
solubility at 24 h ([5]; pH 6.7, aqueous buffer, pH = 6.8 Buffer, supernatant pH 6.70): 702 µg/mL (≈ 1230 µM)
solubility at 4 h ([5]; Water, supernatant pH 7.83): 339 µg/mL (≈ 593 µM)
solubility at 24 h ([5]; Water, supernatant pH 7.34): 266 µg/mL (≈ 465 µM)
SMILES: C[C@H](NC(=O)c1cc(-c2ccccc2Cl)on1)C(=O)N[C@@H](CC(=O)O)C(=O)COc1c(F)c(F)cc(F)c1F [crystal IV, (S)-3-((S)-2-(5-(2-chlorophenyl)isoxazol-3-carboxamido)propionamido)-4-oxo-5-(2,3,5,6-tetrafluorophenoxy)pentanoic acid]
